The results in this text go back to paper PMC11946101, “Structural Insights into Salinosporamide a Mediated Inhibition of the Human 20S Proteasome” (Molecules, 2025).

What all share (type): biochemical
Experiment [1] addresses T1, human 20S proteasome subunit β1 (Homo sapiens, UniProt P28072).
T1 construct: gene PSMB6; human constitutive 20S proteasome (h20S), whole complex; catalytic N-terminal Thr1; with other subunits of the 20S proteasome (α1–α7, β1–β7)
The experiment in a line: cryo-EM structure at […] Å; IC50 with Z-LLE-amc.

The target of experiment [2] is T2, human 20S proteasome subunit β2 (Homo sapiens, UniProt Q99436).
T2 construct: gene PSMB7; human constitutive 20S proteasome (h20S), whole complex; catalytic N-terminal Thr1; with other subunits of the 20S proteasome (α1–α7, β1–β7)
T2 sequence (Q06323 whole entry): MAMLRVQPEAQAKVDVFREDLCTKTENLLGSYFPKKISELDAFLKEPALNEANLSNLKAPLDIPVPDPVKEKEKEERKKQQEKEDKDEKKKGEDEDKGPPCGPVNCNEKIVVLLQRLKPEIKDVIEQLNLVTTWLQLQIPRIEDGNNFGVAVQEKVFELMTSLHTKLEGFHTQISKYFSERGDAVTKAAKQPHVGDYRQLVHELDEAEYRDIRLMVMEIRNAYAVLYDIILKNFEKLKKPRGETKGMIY
T2 sequence (Q99436 44-277): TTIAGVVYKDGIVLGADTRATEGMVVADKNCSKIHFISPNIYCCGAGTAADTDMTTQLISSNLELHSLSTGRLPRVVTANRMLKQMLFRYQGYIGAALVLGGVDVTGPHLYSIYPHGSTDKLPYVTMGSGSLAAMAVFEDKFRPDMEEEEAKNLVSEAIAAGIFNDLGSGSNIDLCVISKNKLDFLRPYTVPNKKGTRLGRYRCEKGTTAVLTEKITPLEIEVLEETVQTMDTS
The experiment in a line: cryo-EM structure at […] Å; IC50 with Z-VLR-amc.

For experiment [3], the system named is T3, Trichomonas vaginalis 20S proteasome (Tv20S) subunit β5.
T3 construct: Tv20S, whole complex; with other subunits of the Tv20S proteasome
The experiment in a line: IC50 for the individual proteolytic subunit (Figure S5).

Experiment [4] deals with T4, Trichomonas vaginalis 20S proteasome (Tv20S) subunit β1.
T4 construct: Tv20S, whole complex; with other subunits of the Tv20S proteasome
The experiment is described as above.

In experiment [5] the target is T5, human 20S proteasome subunit β5 (Homo sapiens, UniProt P28074).
T5 construct: gene PSMB5; human constitutive 20S proteasome (h20S), whole complex; catalytic N-terminal Thr1; with other subunits of the 20S proteasome (α1–α7, β1–β7)
T5 sequence (Q06323 whole entry): as the sequence (Q06323 whole entry) above
T5 sequence (P28074 60-263): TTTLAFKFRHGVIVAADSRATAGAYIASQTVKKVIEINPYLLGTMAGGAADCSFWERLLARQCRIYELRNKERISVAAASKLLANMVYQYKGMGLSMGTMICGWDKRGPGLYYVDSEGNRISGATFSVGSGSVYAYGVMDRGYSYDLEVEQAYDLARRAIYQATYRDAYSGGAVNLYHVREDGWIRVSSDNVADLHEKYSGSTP
The experiment in a line: cryo-EM structure at […] Å; IC50 with Suc-LLVY-amc.

T1 sequence (Q06323 whole entry): as the sequence (Q06323 whole entry) above
T1 sequence (P28072 35-239): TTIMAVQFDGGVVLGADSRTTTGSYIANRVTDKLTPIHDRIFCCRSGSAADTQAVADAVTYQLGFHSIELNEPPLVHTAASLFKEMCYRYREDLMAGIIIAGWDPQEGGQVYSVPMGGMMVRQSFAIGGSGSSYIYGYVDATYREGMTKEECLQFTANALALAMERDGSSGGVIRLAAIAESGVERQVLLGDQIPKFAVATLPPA

In the case of `C[C@@]12OC(=O)[C@]1([C@@H](O)[C@@H]1C=CCCC1)NC(=O)[C@@H]2CCCl` [MZB, Marizomib], the IC50 (commonly the concentration needed to halve the response being measured) in experiment [1] was 597 nM; in experiment [2] it was 326 nM; in experiment [3] it was 3.9 ± 0.2 nM; in experiment [4], 244 ± 72.2 nM; in experiment [5], 18.5 nM.
